Experimental data taken from patent US9012446B2, “Amino-oxazines and amino-dihydrothiazine compounds as beta-secretase modulators and methods of use” (Amgen Inc., priority 2010, dated 2015).
Where two headings read alike, the source gives them in different places.

Tests used:
BACE = BACE (Homo sapiens, UniProt P56817); assay: In vitro enzymatic BACE FRET assay; type: biochemical; conditions: average IC50, enzyme assay; read-out: BACE 1 FRET assay
Protocol: In Vitro Enzymatic BACE FRET (Fluorescence Resonance Energy Transfer) Assay (Enzyme Assay Data in the Example Table I) The assay buffer used in this screen is 0.05 M acetate, pH 4.2, 10% DMSO final, 100 uM genapol (which is a nonionic detergent, below its Critical Micelle Concentration). The beta secretase enzyme (0.2 nM) is pre-incubated for one hour with inhibitors, typically in about 1 uL of DMSO according to a serial dilution, are added thereto. This assay is effectively started by the addition of FRET substrate (50 nM) and the combination is incubated for one hour. The FRET assay is terminated with by addition of Tris buffer, which raises the pH to neutrality, and the fluorescence is determined. The FRET substrate is a peptide with commercially available fluorophore and quencher, on opposite sides of the BACE cleavage site. Proteolytic cleavage of the FRET substrate releases quenching of fluorescence (excitation 488 nm and emission […]).

Aβ40 = assay: In vitro BACE cell-based assay (Aβ40 sandwich ELISA, cells stably expressing APP)
Protocol: In Vitro BACE Cell-Based Assay […] Cells stably expressing Amyloid Precursor Protein (APP) were plated at a density of 40K cells/well in 96 well plates (Costar). The cells were cultivated for 24 hours at 37° C. and 5% CO2 in DMEM supplemented with 10% FBS. The test compounds were then added to cells in 10-point dose response concentrations with the starting concentration being either 100 μM or 10 μM. The compounds were diluted from stock solutions in DMSO and the final DMSO concentration of the test compounds on cells was 0.1%. […] The IC50 of the compound was calculated from the percent of control or percent inhibition of Aβ40 as a function of the concentration of the test compound. The sandwich ELISA to detect Aβ40 was performed in 96 well microtiter plates, which were pre-treated with goat anti-rabbit IgG (Pierce). […] The optimal concentration for the pAb40 antibody was 3 μg/ml in Superblock/TBS (Pierce) that was supplemented with 0.05% Tween 20 (Sigma). […] Cellular supernatants were incubated with the capture antibody for 3 h at 4° C., followed by 3 wash steps in TBS-tween (0.05%). The detecting antibody incubation was for 2 h at 4° C., again followed by the wash steps as described previously. The final readout of the ELISA is Time-Resolved Fluorescence (counts per minute) using Delfia reagents Streptavidin-Europium and Enhancement solutions (Perkin Elmer) and the Victor 2 multilabel counter (Perkin Elmer).

[1] = Homo sapiens, HEK293, average IC50, read-out: HEK cell assay
[2] = Homo sapiens, HEK293, average IC50, cell assay, HEK cells
[3] = average IC50, read-out: HEK cell assay

BACE, sequence (P56817 46-501, species assumed): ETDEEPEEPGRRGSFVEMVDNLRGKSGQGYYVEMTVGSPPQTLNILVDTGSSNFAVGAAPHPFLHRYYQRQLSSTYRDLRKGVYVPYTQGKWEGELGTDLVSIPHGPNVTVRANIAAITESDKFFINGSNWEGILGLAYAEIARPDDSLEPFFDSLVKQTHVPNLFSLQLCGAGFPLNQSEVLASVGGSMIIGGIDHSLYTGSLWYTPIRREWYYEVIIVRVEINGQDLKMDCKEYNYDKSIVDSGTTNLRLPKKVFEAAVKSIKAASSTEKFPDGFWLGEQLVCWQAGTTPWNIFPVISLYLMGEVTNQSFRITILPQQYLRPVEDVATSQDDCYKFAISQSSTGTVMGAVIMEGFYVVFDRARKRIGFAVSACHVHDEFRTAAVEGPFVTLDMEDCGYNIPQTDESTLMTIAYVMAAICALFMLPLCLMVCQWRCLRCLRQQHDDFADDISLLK

IC50 (BACE)	SMILES	further results
1580 nM	N#Cc1cccc(-c2ccc3c(c2)[C@]2(CCOC(N)=N2)c2cc(C4=CCOCC4)nc(F)c2O3)c1 [compound 233]	IC50 (Aβ40; [1]): 108 nM
6.2 nM	NC1=N[C@@]2(CCO1)c1cc(-c3cncc(F)c3)ccc1Oc1cnc(-c3cncc(F)c3)cc12 [compound 142]	IC50 (Aβ40; [2]): 4.2 nM
17.4 nM	CC(C)(C)COc1cc2c(cn1)Oc1ccc(-c3cccnc3F)cc1[C@@]21COCC(NC=O)=N1 [Example 43, (S)—N-(7-(2-fluoropyridin-3-yl)-3-(neopentyloxy)-2′,6′-dihydrospiro[chromeno[2,3-c]pyridine-5,3′-[1,4]oxazine]-5′-yl)formamide]	IC50 (Aβ40; [2]): 1.2 nM
2.3 nM	CC1(COc2cc(F)c3c(c2)[C@]2(CCOC(N)=N2)c2cc(-c4cccnc4F)ccc2O3)COC1 [compound 180]	IC50 (Aβ40; [1]): 3.2 nM
0.4 nM	NC1=N[C@@]2(COC1)c1cc(-c3cnccc3F)ccc1Oc1cnc(-c3ccnc(F)c3)cc12 [compound 118]	IC50 (Aβ40; [2]): 0.6 nM
462 nM	NC1=N[C@]2(CCS1)c1cc(-c3cccnc3F)ccc1Oc1c(F)cc(C3=CCCOC3)cc12 [compound 190]	IC50 (Aβ40; [1]): 434 nM
1.4 nM	NC1=N[C@@]2(COC1)c1cc(-c3cccnc3F)ccc1Oc1ncc(N3CC[C@@H](F)C3)cc12 [Example 68, (S)-7-(2-fluoropyridin-3-yl)-3-((R)-3-fluoropyrrolidin-1-yl)-2′,6′-dihydrospiro[chromeno[2,3-b]pyridine-5,3′-[1,4]oxazin]-5′-amine]	IC50 (Aβ40; [2]): 1.2 nM
10.5 nM	CC(C)(C)COc1cc2c(cn1)Oc1ccc(N3CCC(F)(F)CC3)cc1[C@@]21COCC(N)=N1 [Example 44, (S)-7-(4,4-difluoropiperidin-1-yl)-3-(neopentyloxy)-2′,6′-dihydrospiro[chromeno[2,3-c]pyridine-5,3′-[1,4]oxazin]-5′-amine]	IC50 (Aβ40; [2]): 19.3 nM
2.7 nM	CC(C)Oc1cc2c(cn1)Oc1ccc(-c3cccnc3)cc1[C@@]21COCC(N)=N1 [compound 258]	IC50 (Aβ40; [1]): 4.2 nM
0.3 nM	NC1=N[C@@]2(COC1)c1cc(-c3cnccc3F)ccc1Oc1cnc(-c3ccc(F)c(F)c3)cc12 [compound 117]	IC50 (Aβ40; [2]): 1.6 nM
13 nM	NC1=NC2(CCO1)c1cc(-c3cccnc3)ccc1Oc1cnc(-c3cccnc3)cc12 (stereo not drawn) [compound 150, 3,7-di-3-pyridinyl-5′,6′-dihydrospiro[chromeno[2,3-c]pyridine-5,4′-[1,3]oxazin]-2′-amine]	IC50 (Aβ40; [2]): 10.3 nM
49.6 nM	NC1=N[C@]2(CCO1)c1cc(-c3cccnc3F)ccc1Oc1cnc(-c3cccnc3F)cc12 [compound 100]	IC50 (Aβ40; average IC50, cell assay, HEK cells): 184 nM
1740 nM	NC1=N[C@]2(CCO1)c1cc(-c3cccnc3F)ccc1Oc1c2cc(-c2cccnc2F)nc1F [compound 104]	IC50 (Aβ40; [2]): 1900 nM
892 nM	NC1=N[C@]2(CCO1)c1cc(-c3cccnc3F)ccc1Oc1c(F)cc(N3CC[C@@H](F)C3)cc12 [compound 177]	IC50 (Aβ40; [1]): 2530 nM
90.8 nM	C[C@@H]1OC[C@@]2(N=C1N)c1cc(-c3cccnc3F)ccc1Oc1cnc(Cl)cc12 [compound 210]	IC50 (Aβ40; [3]): 205 nM
110 nM	CC(C)(F)COc1cc(F)c2c(c1)[C@@]1(COCC(N)=N1)c1cc(-c3cccnc3F)ccc1O2 [37B]	IC50 (Aβ40; [2]): 64.1 nM
211 nM	NC1=N[C@]2(COC1)c1cc(-c3cccnc3F)ccc1Oc1c(F)cc(N3CCOCC3)cc12 [35B]	IC50 (Aβ40; [2]): 86.2 nM
20000 nM	NC1=N[C@@]2(CO[C@@H]1C(F)(F)F)c1cc(Br)ccc1Oc1cnc(Cl)cc12 [compound 205]	–
2.5 nM	CC1(COc2cc(F)c3c(c2)[C@]2(CCSC(N)=N2)c2cc(-c4cccnc4F)ccc2O3)COC1 [compound 197]	IC50 (Aβ40; [1]): 4.8 nM
332 nM	CC1(C#Cc2cnc3c(c2)[C@@]2(COCC(N)=N2)c2cc(-c4cccnc4F)ccc2O3)COC1 [compound 88]	IC50 (Aβ40; [2]): 198 nM
176 nM	NC1=N[C@]2(CCO1)c1cc(-c3cccnc3F)ccc1Oc1c2cc(-c2ccccc2)nc1F [compound 235]	–
541 nM	N#Cc1cccc(-c2ccc3c(c2)[C@]2(CCOC(N)=N2)c2cc(C4=CCCOC4)nc(F)c2O3)c1 [compound 224]	IC50 (Aβ40; [1]): 982 nM

IC50 (BACE)	SMILES	further results
7 nM	NC1=N[C@]2(CCO1)c1cc(-c3cccnc3F)ccc1Oc1c(F)cc(-c3ccnc(F)c3)cc12 [compound 183]	IC50 (Aβ40; [3]): 15.4 nM
1740 nM	NC1=N[C@]2(CCO1)c1cc(-c3cccnc3F)ccc1Oc1c2cc(-c2ccnc(F)c2)nc1F [compound 106]	IC50 (Aβ40; [2]): 2640 nM
23700 nM	COc1ccc2c(c1)C1(CCSC(N)=N1)c1cc(Br)ccc1O2 (stereo not drawn) [compound 136]	–
0.8 nM	NC1=N[C@@]2(CCO1)c1cc(-c3cccnc3)ccc1Oc1c2cc(-c2cncc(F)c2)nc1F [compound 231]	IC50 (Aβ40; [1]): 0.3 nM
1.6 nM	CCOc1cc2c(cn1)Oc1ccc(-c3cccnc3F)cc1[C@@]21COCC(N)=N1 [compound 260]	IC50 (Aβ40; [1]): 2.1 nM
2 nM	NC1=N[C@@]2(CCO1)c1cc(-c3cccnc3F)ccc1Oc1c2cc(-c2ccccc2)nc1F [compound 230]	–
0.3 nM	NC1=N[C@@]2(COC1)c1cc(-c3cncnc3)ccc1Oc1cnc(-c3ccc(F)c(F)c3)cc12 [compound 79]	IC50 (Aβ40; [2]): 0.8 nM
23100 nM	NC1=N[C@]2(COC1)c1cc(Br)ccc1Oc1cnc(Cl)cc12 (single isomer, unassigned) [Example 9B]	–
9590 nM	COc1cc(F)c2c(c1)[C@@]1(CCSC(N)=N1)c1cc(-c3cccnc3F)ccc1O2 [compound 186]	–
4130 nM	NC1=NC2(COC1)c1cc(Br)ccc1Oc1cnc(Cl)cc12 (stereo not drawn) [compound 9]	–
4150 nM	NC1=N[C@@]2(COC1)c1cc(Br)ccc1Oc1cnc(Cl)cc12 (single isomer, unassigned) [Example 9A]	–
4220 nM	COc1cc(F)c2c(c1)[C@@]1(CCOC(N)=N1)c1cc(-c3cccnc3F)ccc1O2 [compound 174]	–
9960 nM	NC1=NC2(CCS1)c1cc(Br)ccc1Oc1ccc(I)cc12 (stereo not drawn) [compound 13]	–
15400 nM	COc1cc(F)c2c(c1)C1(CCOC(N)=N1)c1cc(Br)ccc1O2 (racemic) [compound 20]	–
4.1 nM	C[C@@H]1COC(N)=N[C@]12c1cc(-c3cccnc3F)ccc1Oc1cnc(C3=CCCOC3)cc12 [compound 262]	–
4.1 nM	NC1=N[C@@]2(CCO1)c1cc(-c3cccnc3F)ccc1Oc1cnc(-c3ccccc3)cc12 [compound 138]	–
449 nM	C[C@H]1COC(N)=N[C@@]12c1cc(-c3cccnc3F)ccc1Oc1cnc(C3=CCCOC3)cc12 [compound 263]	–
3.7 nM	CC1COC(N)=N[C@]12c1cc(-c3cccnc3F)ccc1Oc1cnc(C3=CCCOC3)cc12 (stereo partly drawn) [compound 264]	–
7110 nM	COc1ccc2c(c1)[C@]1(COCC(N)=N1)c1cc(Br)ccc1O2 [compound 134]	–
–	CC(C)(C)COc1ccc2c(c1)[C@]1(COCC(N)=N1)c1cc(Br)ccc1O2 [Example 67a, (3R)-2′-bromo-7′-(2,2-dimethylpropoxy)-6H-spiro[1,4-oxazine-3,9′-xanthen]-5-amine]	IC50 (Aβ40; [1]): 587 nM
890 nM	CC1COC(N)=N[C@@]12c1cc(-c3cccnc3F)ccc1Oc1cnc(C3=CCCOC3)cc12 (stereo partly drawn) [compound 261]	–

SMILES	IC50 (BACE)	further results
NC1=NC2(CCO1)c1cc(I)ccc1Oc1ncc(Br)cc12 (stereo not drawn) [compound 25]	16000 nM	–
